This note sets out measurements from patent US11155576B2, “Synthetic peptides, enzymatic formation of pericellular hydrogels/nanofibrils, and methods of use” (BRANDEIS UNIVERSITY, priority 2014, dated 2021).

One data set has as its system Ect1/E6E7 cells. Nature of the data set: Confocal microscopy, Congo red/DAPI staining, Ect1/E6E7. Format: cell-based, human. Particulars: 560 μM, 12 hours. The protocol: Cells in exponential growth phase were seeded in a glass bottomed culture chamber at 2×10^4 cells/well. Cells were allowed to attach for 24 hours at 37° C., 5% CO2. […] Following 12 hours of incubation, cells were washed 3 times with PBS prior to being stained with 0.1 mg/mL Congo red and 0.6 μM DAPI in PBS buffer (30 minutes at 37° C. in the dark). Next, cells were rinsed three times with PBS, and then kept in PBS for imaging.
Ect1/E6E7 cells (immortalized normal human cervical epithelial cells, which have same tissue and organ origins as HeLa cells) were treated with the same procedure as described for HeLa cells above. […] The difference of hydrogel/nanonets formation by D-2a conversion to D-2b on HeLa cells and Ect1/E6E7 cells agrees with the notion that HeLa cells have higher levels of phosphatase activity than Ect1/E6E7 cells (FIG. 9).

The test system of the next data set is phosphatases. Nature of the data set: Phosphatase activity assay of gel, suspension and control medium of HeLa cells. Type of data set: cell-based, human. Conditions: HeLa cells treated with 560 μM D-2a, after removing the hydrogel. The protocol:
Phosphatase activity was evaluated by the alkaline phosphatase assay using the Abcam Alkaline Phosphatase Assay Kit following the supplied protocol. In brief, 50 μL of 5 mM pNPP solution in assay buffer was mixed with 80 μL of the sample solutions in 96 well plate. The mixed solution was incubated at 25° C., protected from light. 20 μL of stop solution was added to each test and the OD at 405 nm of the solution was measured in a microplate reader.
To verify whether the pericellular hydrogel/nanonets block the entry of secretory proteins/enzymes into the culture medium, the amount of phosphatases in four experimental samples was evaluated: blank medium (Blank), medium incubated with untreated HeLa cells (Control), the pericellular hydrogel from HeLa cells treated with 560 μM D-2a for 12 hours (Gel), and the suspension of the medium of HeLa cells treated with D-2a after removing the hydrogel (Suspension). The amount of phosphatases accumulated in the Gel is about 27 times higher than that found in the Control (FIG. 3B). […] In other words, the pericellular hydrogel/nanonets largely block cellular mass exchange between the cells and their environment.

Data set [1] in a line: Cell viability assay (MTT), HeLa. Type of data set: cell-based, human. Particulars: human, HeLa cells, 48 hour incubation. The protocol:
(§1) Cells in exponential growth phase were seeded in a 96 well plate at a concentration of 2×10^4 cells/well. The cells were allowed to attach to the wells for 24 hours at 37° C., 5% CO2. The culture medium was removed and 100 μL culture medium containing compounds (immediately diluted from fresh prepared stock solution of 10 mM) at gradient concentrations (0 μM as the control) was placed into each well. After culturing at 37° C., 5% CO2 for 48 hours, each well was added by 10 μL of 5 mg/mL MTT (3-(4,5-dimethylthiazoL-2-yl)-2,5-diphenyltetrazolium bromide), and the plated cells were incubated in the dark for 4 hours. 100 μL 10% SDS with 0.01M HCl was added to each well to stop the reduction reaction and to dissolve the purple. After overnight incubation of the cells at 37° C., the OD at 595 nm of the solution was measured in a microplate reader. Data represent the mean±standard deviation of three independent experiments.

The test system of a further data set is MES-SA cells. Put plainly: Cell viability assay (MTT), MES-SA. Format: cell-based. Particulars: 280 μM. As for the experimental part:
as §1

The test system of a further data set is HeLa cells. Nature of the data set: Western blot of tubulin in pericellular nanonets versus CM. Format: cell-based, human. Particulars: nanonets after 3 or 6 hours of incubation versus CM collected at 24 hours. The protocol: To select the optimal incubation time for the collection of nanonets/hydrogel, HeLa cells were incubated with D-2a (for 3, 6, or 9 hours, respectively) to allow nanonet formation. The amount of tubulin (an indicator of autolysis) present in the nanonets/hydrogels at various time points was evaluated by Western blot and compared to the amount of tubulin present in conditioned media (“CM”) collected following 24 hours of incubation (FIG. 33A). […] The results also indicate the cell compatibility of the incubation and collection process for nanonets/hydrogel.
(In general: A western blot detects proteins with antibodies after separation by electrophoresis.)

Data set [2] deals with Alkaline-phosphatase (“ALP”). Conditions: D-2a 0.20 wt %/2.77 mM. The source says: […] Scale bar=100 nm.
Napthalene capped tripeptide precursor molecule D-2a and hydrogelator molecule D-2b, synthesized according to Yang et al. (Small 3:558-562 (2007), which is hereby incorporated by reference in its entirety), are comprised of the tripeptide D-Phe-D-Phe-D-Tyr (FIG. 1B). The D-Tyr of D-2a is phosphorylated (FIG. 1B).

Turning to `O=C(Cc1ccc2ccccc2c1)N[C@H](Cc1ccccc1)C(=O)N[C@H](Cc1ccccc1)C(=O)N[C@H](Cc1ccc(OP(=O)(O)O)cc1)C(=O)O` [D-2a, Nap-D-Phe-D-Phe-D-Tyr(PO3H2)], in the data set with Ect1/E6E7 cells, the “Congo red fluorescence on cells” value is “hardly display any red fluorescence” and the “DAPI entry into cells” value is “DAPI stains the nuclei”. Moreover, in the data set with phosphatases, the “Amount of phosphatases in the Suspension relative to the Control” value was “significantly lower than that in the Control”. Also, the viability at 48 h, 280 µM in data set [1] was approximately 10%. The Growth inhibition entry in the data set on MES-SA cells is “inhibits the growth”. The “Amount of tubulin (indicator of autolysis) in nanonets” value in the data set on HeLa cells is “contain less tubulin than CM”. Also, in data set [2], the “Hydrogel formation after ALP-catalyzed dephosphorylation” value is recorded as “self assembles to form the nanofibrils of a hydrogel”.

By viability is commonly meant the share of living cells, or the viability signal relative to a control. The low end stands for a greater loss of cells, the high end for better survival.
